Measurements taken from ChEMBL document CHEMBL1201862, “PubChem BioAssay data set” (2004).
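Step 1: Grow cells in 96-well plates. Step 2: Expose to compound for 48 hours at 5 concentrations. Step 3: Interpolate endpoints linearly; if unreached, use highest concentration. At the GI50, growth is halved.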 Calls of active or inactive are those of the source. Cut-off read from the data, not from the text of the source: active = GI50 up to about 1.1 µM and inactive = higher.

Tests used:
Assay in all cases: NCI-60 cell line screen, 48 h
HCT-15 = system: HCT-15
HCC 2998 = system: HCC 2998
SNB-19 = system: SNB-19
NCI-H23 = system: NCI-H23
UACC-257 = system: UACC-257
SR = system: SR
UACC-62 = system: UACC-62
UO-31 = system: UO-31
OVCAR-3 = system: OVCAR-3
HL-60 = system: HL-60
RPMI-8226 = system: RPMI-8226
SK-OV-3 = system: SK-OV-3
OVCAR-5 = system: OVCAR-5
EKVX = system: EKVX
TK-10 = system: TK-10
LOX IMVI = system: LOX IMVI
M14 = system: M14
NCI-H460 = system: NCI-H460
CAKI-1 = system: CAKI-1

| SMILES | GI50 (HCT-15) | GI50 (HCC 2998) | GI50 (SNB-19) | GI50 (NCI-H23) | GI50 (UACC-257) | GI50 (SR) | GI50 (UACC-62) | GI50 (UO-31) | GI50 (OVCAR-3) | GI50 (HL-60) | GI50 (RPMI-8226) | GI50 (SK-OV-3) | GI50 (OVCAR-5) | GI50 (EKVX) | GI50 (TK-10) | GI50 (LOX IMVI) | GI50 (M14) | GI50 (NCI-H460) | GI50 (CAKI-1) |
| --- | --- | --- | --- | --- | --- | --- | --- | --- | --- | --- | --- | --- | --- | --- | --- | --- | --- | --- | --- |
| CN(C)CCNC(=O)Cc1ccccc1Nc1c(Cl)cccc1Cl | 15.6 µM | 11.5 µM (inactive) | 17.2 µM (inactive) | 18.4 µM (inactive) | 12.8 µM (inactive) | 15.2 µM (inactive) | 18.3 µM (inactive) | 12.6 µM (inactive) | 17.2 µM (inactive) | 14.7 µM (inactive) | 16.6 µM (inactive) | 17.6 µM (inactive) | 11.7 µM (inactive) | 17.4 µM (inactive) | 13.7 µM (inactive) | 13.6 µM (inactive) | 17.3 µM (inactive) | 10 µM (inactive) |  |
| CCCCCCCCCCCCCCCC(=O)OCCOCCOCCOCCOCCOC(=O)CCCCCCCCCCCCCCC | > 100 µM | > 100 µM (inactive) | > 100 µM (inactive) | > 100 µM (inactive) | > 100 µM (inactive) | > 100 µM (inactive) | > 100 µM (inactive) | > 100 µM (inactive) | > 100 µM (inactive) | > 100 µM (inactive) | > 100 µM (inactive) | > 100 µM (inactive) | > 100 µM (inactive) | > 100 µM (inactive) | > 100 µM (inactive) | > 100 µM (inactive) | > 100 µM (inactive) | > 100 µM (inactive) | > 100 µM (inactive) |
| O=[N+]([O-])c1cc([N+](=O)[O-])c(C(Cl)C(Cl)c2ccccc2)cc1C(Cl)C(Cl)c1ccccc1 (stereo not drawn) | 1.48 µM | 1.76 µM (inactive) | 2.32 µM (inactive) | 1.65 µM (inactive) | 1.84 µM (inactive) | 3.18 µM (inactive) | 1.84 µM (inactive) | 1.51 µM (inactive) | 2.2 µM (inactive) | 7.29 µM (inactive) | 1.07 µM (active) | 6.34 µM (inactive) | 2.14 µM (inactive) | 2.2 µM (inactive) | 2.34 µM (inactive) | 1.64 µM (inactive) | 1.49 µM (inactive) | 2.02 µM (inactive) | 1.71 µM (inactive) |
| CCOC(=O)N1C2C=C(C)C(ON2C(=O)c2ccccc2)C2C(C)C(=O)N21 (stereo not drawn) | > 100 µM | > 100 µM (inactive) | > 100 µM (inactive) | > 100 µM (inactive) | > 100 µM (inactive) | > 100 µM (inactive) | > 100 µM (inactive) | > 100 µM (inactive) | > 100 µM (inactive) | > 100 µM (inactive) | > 100 µM (inactive) | > 100 µM (inactive) | > 100 µM (inactive) | > 100 µM (inactive) | > 100 µM (inactive) | > 100 µM (inactive) | > 100 µM (inactive) | > 100 µM (inactive) |  |
| CNC(=S)N/N=C(\C)c1cc(OC)ccc1O | 63.1 µM | > 100 µM (inactive) | > 100 µM (inactive) | > 100 µM (inactive) | > 100 µM (inactive) | 43.5 µM (inactive) | > 100 µM (inactive) | > 100 µM (inactive) | > 100 µM (inactive) | > 31.4 µM (inactive) | > 31.3 µM (inactive) | > 100 µM (inactive) | > 100 µM (inactive) | > 100 µM (inactive) |  | > 100 µM (inactive) | > 92.5 µM (inactive) | > 100 µM (inactive) | > 100 µM (inactive) |
| COC(=O)c1c[nH]cc1CCc1c[nH]cc1C(=O)OC | > 100 µM | > 100 µM (inactive) | > 100 µM (inactive) | > 100 µM (inactive) | > 100 µM (inactive) | > 100 µM (inactive) |  |  | > 100 µM (inactive) | > 100 µM (inactive) |  | > 100 µM (inactive) | > 100 µM (inactive) | > 100 µM (inactive) | > 100 µM (inactive) | > 100 µM (inactive) |  | > 100 µM (inactive) | > 100 µM (inactive) |
| O=c1c(O)c(-c2ccccc2)n(O)c2ccc(Cl)cc12 | 16 µM | 17.7 µM (inactive) | 34.2 µM (inactive) | 34.7 µM (inactive) | 25.1 µM (inactive) | 28.8 µM (inactive) | 24.5 µM (inactive) | 51.2 µM (inactive) | 32.3 µM (inactive) | 24.1 µM (inactive) | 23.4 µM (inactive) | 30.8 µM (inactive) | 38.9 µM (inactive) |  | 31.3 µM (inactive) | 11.4 µM (inactive) | 30.8 µM (inactive) | 23.6 µM (inactive) | 29.9 µM (inactive) |
| C=CCc1cccc2cc(C(N)=O)c(=N)oc12 | > 100 µM | > 100 µM (inactive) | > 100 µM (inactive) | > 100 µM (inactive) | > 100 µM (inactive) | 40.6 µM (inactive) | 71.8 µM (inactive) |  | > 100 µM (inactive) | > 100 µM (inactive) | > 100 µM (inactive) | 90.2 µM (inactive) | > 100 µM (inactive) |  |  | 84.7 µM (inactive) | > 100 µM (inactive) | > 100 µM (inactive) | > 100 µM (inactive) |
| CC(C)c1cc(OCC(O)CO)cc(C(C)C)c1 (stereo not drawn) | > 100 µM | > 100 µM (inactive) | > 100 µM (inactive) | > 100 µM (inactive) | > 100 µM (inactive) | > 100 µM (inactive) | > 100 µM (inactive) | > 100 µM (inactive) | > 100 µM (inactive) | > 100 µM (inactive) |  | > 100 µM (inactive) | > 100 µM (inactive) | > 100 µM (inactive) | > 100 µM (inactive) | > 100 µM (inactive) | > 100 µM (inactive) | > 100 µM (inactive) | > 100 µM (inactive) |
| CC(C(=O)n1nnc2ccccc21)N(c1ccccc1)c1ccccc1 (stereo not drawn) | > 100 µM | > 100 µM (inactive) | 48.3 µM (inactive) | 56.8 µM (inactive) | 72.4 µM (inactive) | 78.3 µM (inactive) | > 100 µM (inactive) | > 100 µM (inactive) | 66.7 µM (inactive) | 45.1 µM (inactive) | 52.7 µM (inactive) | > 100 µM (inactive) | > 100 µM (inactive) | 68.2 µM (inactive) | > 100 µM (inactive) | 76.6 µM (inactive) | > 100 µM (inactive) | > 100 µM (inactive) | > 100 µM (inactive) |
| CCOC(=N)CC(=O)Nc1ccccc1CC | > 100 µM | 98.9 µM (inactive) | > 100 µM (inactive) | > 100 µM (inactive) | > 100 µM (inactive) | > 100 µM (inactive) | > 100 µM (inactive) | > 100 µM (inactive) | > 100 µM (inactive) | > 100 µM (inactive) |  | > 100 µM (inactive) | > 100 µM (inactive) | > 100 µM (inactive) | > 100 µM (inactive) | > 100 µM (inactive) | > 100 µM (inactive) | > 100 µM (inactive) | > 100 µM (inactive) |
| CC(C)(C)C#C[P+](c1ccccc1)(c1ccccc1)c1ccccc1 | 0.655 µM | 0.293 µM (active) | 0.274 µM (active) | 0.353 µM (active) | 0.366 µM (active) | 0.149 µM (active) | 0.297 µM (active) | 1.04 µM (active) | 0.351 µM (active) | 0.057 µM (active) | 0.0377 µM (active) | 0.655 µM (active) | 1.15 µM (inactive) | 0.566 µM (active) | 1.43 µM (inactive) | 0.328 µM (active) | 0.225 µM (active) | 0.152 µM (active) | 0.804 µM (active) |
| Cc1cc(=O)oc2cc(OCCCOc3ccc4c(C)cc(=O)oc4c3)ccc12 | > 100 µM | > 100 µM (inactive) | 57.9 µM (inactive) | > 100 µM (inactive) | > 100 µM (inactive) | > 100 µM (inactive) | > 100 µM (inactive) | > 100 µM (inactive) | > 100 µM (inactive) | > 100 µM (inactive) | > 100 µM (inactive) |  |  | > 100 µM (inactive) | > 100 µM (inactive) | > 100 µM (inactive) | > 100 µM (inactive) | > 100 µM (inactive) |  |
| CC1CC(C)C(C(O)CC2CC(=O)N(c3ccccc3)C(=O)C2)C(O)C1 (stereo not drawn) |  | > 100 µM (inactive) | > 100 µM (inactive) | > 100 µM (inactive) | > 100 µM (inactive) | > 100 µM (inactive) | > 100 µM (inactive) | > 100 µM (inactive) | > 100 µM (inactive) | > 100 µM (inactive) | > 100 µM (inactive) | > 100 µM (inactive) | > 100 µM (inactive) | > 100 µM (inactive) | > 100 µM (inactive) | > 100 µM (inactive) | > 100 µM (inactive) | > 100 µM (inactive) | > 100 µM (inactive) |
| CCOC(=O)Cc1nc2ccccc2s1 |  | 88.1 µM (inactive) | 44.5 µM (inactive) | 15.6 µM (inactive) | 17.3 µM (inactive) | 20.1 µM (inactive) | 17.9 µM (inactive) | 15.8 µM (inactive) | > 10 µM (inactive) | 18.2 µM (inactive) |  | 50.9 µM (inactive) | 24.9 µM (inactive) | 39.4 µM (inactive) | 27.5 µM (inactive) | 17.8 µM (inactive) | 16.6 µM (inactive) | 20.4 µM (inactive) | 19.6 µM (inactive) |
| CN(C)c1cccc2c(S(=O)(=O)NCCN)cccc12 [DANSYL ETHYLENEDIAMINE] | > 100 µM | 39.5 µM (inactive) | > 100 µM (inactive) | > 100 µM (inactive) | > 100 µM (inactive) | > 100 µM (inactive) | > 100 µM (inactive) | 98.9 µM (inactive) | > 100 µM (inactive) | 9.91 µM (inactive) |  | > 100 µM (inactive) | > 100 µM (inactive) | > 100 µM (inactive) |  | > 100 µM (inactive) | > 100 µM (inactive) | > 100 µM (inactive) | > 100 µM (inactive) |
